Test results published in ChEMBL document CHEMBL4433226, “Unnatural Tripeptides as Potent Positive Allosteric Modulators of T1R2/T1R3” (ACS Med Chem Lett, 2019).
Calls of active or inactive are those of the source. The rule behind the calls is not given here.

Tests used:
T1R2/T1R3 (Homo sapiens) [1] = molecular target: T1, T1R2/T1R3 (Homo sapiens) (UniProt Q8TE23+Q7RTX0); test: Agonist activity at human T1R2/T1R3 expressed in PEAKrapid cells assessed as effect on intracellular calcium influx measured for 120 secs by fluorescence based assay; type: functional, cell-based
Homo sapiens = species: Homo sapiens; test: Sweetness enhancing activity in trained human panelists assessed as rating of perceived sweetness intensity of depicted sucrose solutions at 10 ppm co-treated with 5% sucrose relative to original level; type: functional
T1R2/T1R3 (Homo sapiens) [2] = molecular target: T1, T1R2/T1R3 (Homo sapiens); test: Positive allosteric modulator activity at human T1R2/T1R3 expressed in PEAKrapid cells assessed as potentiation of sucrose-induced intracellular calcium influx by measuring sucrose EC50 at 30 uM measured for 120 secs by fluorescence based assay relative to FEMA4774; type: functional, cell-based
T1R2/T1R3 (Homo sapiens) [3] = molecular target: T1, T1R2/T1R3 (Homo sapiens); test: Positive allosteric modulator activity at human T1R2/T1R3 expressed in PEAKrapid cells assessed as potentiation of sucrose-induced intracellular calcium influx by measuring sucrose EC50 at 50 uM measured for 120 secs by fluorescence based assay relative to compound-2; type: functional, cell-based

Structure (SMILES) | Activity (T1R2/T1R3 (Homo sapiens) [1]) | Efficacy (T1R2/T1R3 (Homo sapiens) [2]) | Efficacy (T1R2/T1R3 (Homo sapiens) [3]) | fold change (FC) (Homo sapiens)
Cc1nc2cccc(OCC(C)(C)C(=O)NC(C)C)c2c(N)c1C(=O)O | inactive |  |  | 1.97
CC[C@H](C)[C@@H](CCC(=O)Nc1cncc(C(=O)O)c1N)NC(=O)[C@@H](N)C1CCCCC1 | inactive | 51% |  | 
CC(C)C(=O)NCc1ccc(-c2cncc(C(=O)O)c2N)o1 | inactive | 37% |  | 
CC(=O)NCc1ccc(-c2cncc(C(=O)O)c2N)o1 | inactive | 33% |  | 
Cc1nc2ccccc2c(N)c1C(=O)O | inactive |  |  | 
CC(C)(C)OC(=O)NCc1ccc(-c2cncc(C(=O)O)c2N)o1 | inactive | 41% |  | 
CC(C)C[C@H](N)C(=O)NCc1ccc(-c2cncc(C(=O)O)c2N)o1 | inactive | 61% |  | 
Nc1c(C(=O)O)cncc1-c1cccs1 | inactive |  | 85% | 
CC(C)CNC(=O)C(=O)NCc1ccc(-c2cncc(C(=O)O)c2N)o1 | inactive | 43% |  | 
Nc1c(NC(=O)CC[C@H](Cc2ccccc2)NC(=O)[C@@H](N)C2CCCCC2)cncc1C(=O)O | inactive | 55% |  | 
CC(C)[C@@H](CC(=O)Nc1cncc(C(=O)O)c1N)NC(=O)[C@@H](N)C1CCCCC1 | inactive | 35% |  | 
CC(C)CNC(=O)NCc1ccc(-c2cncc(C(=O)O)c2N)o1 | inactive | 48% |  | 
C[C@@H](CC(=O)Nc1cncc(C(=O)O)c1N)NC(=O)[C@@H](N)C1CCCCC1 | inactive | 44% |  | 
CC(C)CC(=O)NCc1ccc(-c2cncc(C(=O)O)c2N)o1 | inactive | 42% |  | 

Continued, in another order:

Activity (T1R2/T1R3 (Homo sapiens) [1]) | Efficacy (T1R2/T1R3 (Homo sapiens) [2]) | Efficacy (T1R2/T1R3 (Homo sapiens) [3]) | Structure (SMILES) | fold change (FC) (Homo sapiens)
inactive | 37% |  | Nc1c(NC(=O)CCCNC(=O)[C@@H](N)C2CCCCC2)cncc1C(=O)O | 
inactive |  | 83% | Nc1c(C(=O)O)cncc1-c1ccco1 | 
inactive | 67% |  | CC(C)(CC(=O)Nc1cncc(C(=O)O)c1N)NC(=O)[C@@H](N)C1CCCCC1.Cl.Cl | 2.05
inactive | 52% |  | CC(C)[C@H](N)C(=O)NCc1ccc(-c2cncc(C(=O)O)c2N)o1 | 
inactive | 45% |  | Cl.Cl.Nc1c(NC(=O)CCCCNC(=O)[C@@H](N)C2CCCCC2)cncc1C(=O)O | 1.96
inactive |  | 80% | Nc1c(C(=O)O)cncc1-c1ccccc1 | 
inactive | 45% |  | CC(C)[C@@H](CCC(=O)Nc1cncc(C(=O)O)c1N)NC(=O)[C@@H](N)C1CCCCC1 | 
inactive | 55% |  | CC[C@H](C)[C@H](N)C(=O)NCc1ccc(-c2cncc(C(=O)O)c2N)o1 | 
inactive | 36% |  | Nc1c(NC(=O)CCCCCCNC(=O)[C@@H](N)C2CCCCC2)cncc1C(=O)O | 
inactive | 38% |  | CC(C)C[C@@H](CC(=O)Nc1cncc(C(=O)O)c1N)NC(=O)[C@@H](N)C1CCCCC1 | 
inactive | 72% |  | Cl.Cl.Nc1c(C(=O)O)cncc1-c1ccc(CNC(=O)[C@@H](N)C2CCCCC2)o1 | 1.77
